We go through eight compounds from patent US12370161B2, “Composition for treating atopy or pruritus comprising N-acetyl or N-acyl amino acid” (STEMDR INC., priority 2017, dated 2025).

In the experiment the test system is atopic dermatitis-induced Nc/Nga mouse. In words: SCORAD clinical skin score, DNFB-induced atopic dermatitis in Nc/Nga mouse. The note with it: for dermatitis-treating effect of L-, L/D- and D-form (FIG. 6): Nc/Nga atopic dermatitis model, 0.1%; for Mouse 1 Erythema: DNFB Nc/Nga (FIG. 8), 0.1% in PBS, 200 μL on back skin daily day 15-21; for Mouse 1 Erythema / Mouse 1 Abrasion / Mouse 1 Dryness / Mouse 1 Edema / Mouse 1 Eschar / Mouse 1 Lichenification / Mouse 2 Abrasion / Mouse 2 Dryness / Mouse 2 Edema / Mouse 2 Erythema / Mouse 2 Eschar / Mouse 2 Lichenification / Mouse 3 Abrasion / Mouse 3 Dryness / Mouse 3 Edema / Mouse 3 Erythema / Mouse 3 Eschar / Mouse 3 Lichenification: graded per Example 4; for Mouse 1 Abrasion / Mouse 1 Dryness / Mouse 1 Edema / Mouse 1 Eschar / Mouse 1 Lichenification / Mouse 1 Sum / Mouse 2 Abrasion / Mouse 2 Dryness / Mouse 2 Edema / Mouse 2 Erythema / Mouse 2 Eschar / Mouse 2 Lichenification / Mouse 2 Sum / Mouse 3 Abrasion / Mouse 3 Dryness / Mouse 3 Edema / Mouse 3 Erythema / Mouse 3 Eschar / Mouse 3 Lichenification / Mouse 3 Sum / Mean (of Sum, SCORAD): DNFB Nc/Nga, 0.1% topical day 15-21; for Mouse 1 Sum / Mouse 2 Sum / Mouse 3 Sum: sum of individual scores; for Mean (of Sum, SCORAD): mean of 3 mice. In kind it is in vivo. Details: key to Mouse 1 Erythema / Mouse 2 Eschar / Mouse 2 Dryness / Mouse 2 Abrasion / Mouse 1 Edema / Mouse 1 Eschar / Mouse 1 Dryness / Mouse 1 Abrasion / Mouse 2 Erythema / Mouse 2 Edema / Mouse 3 Erythema / Mouse 3 Edema / Mouse 3 Eschar / Mouse 3 Dryness / Mouse 3 Abrasion: 0 = no symptom, 1 = mild, 2 = moderate, 3 = severe; key to Mouse 1 Sum / Mean (of Sum, SCORAD) / Mouse 3 Sum: sum of individual symptom scores, each graded 0-3. The protocol: In order to establish a model more similar to an atopy model than that of the Balb/c mice, atopy was induced in Nc/Nga mouse mice. Specifically, after inducing DNFB sensitization by applying 100 μL of 0.35% 2,4-dinitrofluorobenzene (DNFB) in acetone/olive oil (3:1) on the shaved back skin, dermatitis was induced by applying 100 μL of 0.15% DNFB for 4-20 days, every other day. Control mice were treated with a vehicle of the same volume (FIG. 1B).
After dissolving an N-acetyl or N-acylamino acid in phosphate-buffered saline to 0.1%, 200 μL of the solution was applied on the back skin of the mice every day, from day 22 until day 28 for the Balb/c atopic dermatitis model, and from day 15 until day 21 for the Nc/Nga atopic dermatitis model. When the N-acetyl or N-acylamino acid was treated together with DNFB, they were treated with 12-hour intervals in order to avoid direct reaction between the DNFB and the N-acetyl or N-acylamino acid. A non-treated group and a 2,4-dinitrofluorobenzene (DNFB) group were treated with phosphate-buffered saline of the same volume (FIGS. 1A-1B). As the N-acetylamino acid, products purchased from Sigma-Aldrich (USA), MP scientific (USA), TCI (Tokyo Chemical Industry, Japan), Santacruz (USA), etc. were used without purification.
The degree of skin soothing and the severity of atopic dermatitis were evaluated macroscopically according to the previously established SCORAD (SCORing Atopic Dermatitis) method (Oranje et al., 2007). The degree of symptoms such as edema, erythema, eschar, dryness, abrasion, lichenification, etc. was graded from 0 to 3 (0, no symptom; 1, mild; 2, moderate; 3, severe). The overall dermatitis score was determined from the sum of all individual scores (Table 1). The assessment was performed by an investigator who was blind to the grouping of the mice.
Skin-soothing effect and the severity of dermatitis were evaluated for the acyl derivatives of tryptophan synthesized in Example 9, the acyl derivative of alanine synthesized in Example 10 and N-palmitoylalanine (purchased from Santacruz (USA)) according to the method of Example 4 (Table 2)

Regarding `CC(=O)N[C@@H](C)C(=O)O` [D-form N-acetylalanine, N-acetylalanine, reference compound], the “dermatitis-treating effect of L-, L/D- and D-form (FIG. 6)” value is reported as “no effect”.
Regarding `CC(=O)N[C@@H](Cc1c[nH]c2ccccc12)C(=O)O` [D-form N-acetyltryptophan, N-acetyltryptophan, reference compound], the “dermatitis-treating effect of L-, L/D- and D-form (FIG. 6)” value is recorded as “no effect”.
On to `CCCCCCCC/C=C\CCCCCCCCCCCC(=O)N[C@@H](Cc1c[nH]c2ccccc12)C(=O)O` [N-(Z)-docos-13-enoyl L-tryptophan, N—(Z)-docos-13-enoyl-L-tryptophan], for which the “Mouse 1 Erythema” value is 1, the “Mouse 1 Abrasion” value turned out to be 1, the “Mouse 1 Dryness” value is given as 1 and the “Mouse 1 Edema” value was 1. Moreover, the “Mouse 1 Eschar” value was 1, the “Mouse 1 Lichenification” value is 0, the “Mouse 1 Sum” value was 5 and the “Mouse 2 Abrasion” value was 1. The “Mouse 2 Dryness” value worked out at 2, the “Mouse 2 Edema” value is listed as 1, the “Mouse 2 Erythema” value stood at 1 and the “Mouse 2 Eschar” value came out at 2. Also, the “Mouse 2 Lichenification” value worked out at 0, the “Mouse 2 Sum” value is on record as 7, the “Mouse 3 Abrasion” value is listed as 1 and the “Mouse 3 Dryness” value is recorded as 2. Further, the “Mouse 3 Edema” value stood at 1, the “Mouse 3 Erythema” value is on record as 2, the “Mouse 3 Eschar” value came out at 2 and the “Mouse 3 Lichenification” value was determined as 1. Also, the “Mouse 3 Sum” value turned out to be 9 and the “Mean (of Sum, SCORAD)” value is 7.
For the compound `CC(=O)N[C@@H](CCC(=O)N[C@@H](C)C(=O)O)C(=O)O` [N-acetyly-glutammyl-L-alanine, N-acetyl-γ-glutammyl-L-alanine], the “Mouse 1 Erythema” value worked out at 0, the “Mouse 1 Abrasion” value is 1, the “Mouse 1 Dryness” value came out at 0 and the “Mouse 1 Edema” value is given as 1. Besides, the “Mouse 1 Eschar” value stood at 0, the “Mouse 1 Lichenification” value is given as 2, the “Mouse 1 Sum” value was 4 and the “Mouse 2 Abrasion” value amounted to 1. In addition, the “Mouse 2 Dryness” value is given as 1, the “Mouse 2 Edema” value came out at 1, the “Mouse 2 Erythema” value is on record as 1 and the “Mouse 2 Eschar” value stood at 2. For the same compound, the “Mouse 2 Lichenification” value stood at 2, the “Mouse 2 Sum” value is 8, the “Mouse 3 Abrasion” value was 1 and the “Mouse 3 Dryness” value is reported as 0. For the same compound, the “Mouse 3 Edema” value is 1, the “Mouse 3 Erythema” value is given as 1, the “Mouse 3 Eschar” value worked out at 1 and the “Mouse 3 Lichenification” value is 2. Besides, the “Mouse 3 Sum” value was 6 and the “Mean (of Sum, SCORAD)” value is reported as 6.
For the compound `CCCC(=O)N[C@@H](Cc1c[nH]c2ccccc12)C(=O)O` [N-butyryl L-tryptophan, N-butyryl-L-tryptophan], the “Mouse 1 Erythema” value stood at 1, the “Mouse 1 Abrasion” value was 1, the “Mouse 1 Dryness” value is listed as 2 and the “Mouse 1 Edema” value turned out to be 2. Further, the “Mouse 1 Eschar” value worked out at 2, the “Mouse 1 Lichenification” value amounted to 2, the “Mouse 1 Sum” value amounted to 10 and the “Mouse 2 Abrasion” value is 2. In addition, the “Mouse 2 Dryness” value was determined as 2, the “Mouse 2 Edema” value is listed as 1, the “Mouse 2 Erythema” value came out at 2 and the “Mouse 2 Eschar” value is 1. The “Mouse 2 Lichenification” value was determined as 2, the “Mouse 2 Sum” value stood at 10, the “Mouse 3 Abrasion” value is recorded as 1 and the “Mouse 3 Dryness” value is 1. For the same compound, the “Mouse 3 Edema” value turned out to be 1, the “Mouse 3 Erythema” value came out at 1, the “Mouse 3 Eschar” value worked out at 1 and the “Mouse 3 Lichenification” value is 2. Further, the “Mouse 3 Sum” value stood at 6 and the “Mean (of Sum, SCORAD)” value is recorded as 8.7.
As for `CCCCCCCC/C=C\CCCCCCCC(=O)N[C@@H](Cc1c[nH]c2ccccc12)C(=O)O` [N-oleoyl-L-tryptophan], the “Mouse 1 Erythema” value was 2, the “Mouse 1 Abrasion” value came to 2, the “Mouse 1 Dryness” value is 2 and the “Mouse 1 Edema” value is reported as 1. For the same compound, the “Mouse 1 Eschar” value is reported as 2, the “Mouse 1 Lichenification” value is on record as 3, the “Mouse 1 Sum” value is listed as 12 and the “Mouse 2 Abrasion” value amounted to 2. The “Mouse 2 Dryness” value was 2, the “Mouse 2 Edema” value was 1, the “Mouse 2 Erythema” value was 1 and the “Mouse 2 Eschar” value was 1. In addition, the “Mouse 2 Lichenification” value is listed as 3, the “Mouse 2 Sum” value was found to be 10, the “Mouse 3 Abrasion” value was 2 and the “Mouse 3 Dryness” value worked out at 2. Also, the “Mouse 3 Edema” value is reported as 1, the “Mouse 3 Erythema” value worked out at 2, the “Mouse 3 Eschar” value was 1 and the “Mouse 3 Lichenification” value was 2. The “Mouse 3 Sum” value amounted to 10 and the “Mean (of Sum, SCORAD)” value turned out to be 10.7.
As to `CCCCCCCCCCCCCCCC(=O)N[C@@H](C)C(=O)O` [N-palmitoyl L-alanine, N-palmitoyl-L-alanine], the “Mouse 1 Erythema” value came to 1, the “Mouse 1 Abrasion” value is listed as 1, the “Mouse 1 Dryness” value was 1 and the “Mouse 1 Edema” value worked out at 2. Besides, the “Mouse 1 Eschar” value was 1, the “Mouse 1 Lichenification” value is on record as 1, the “Mouse 1 Sum” value was 7 and the “Mouse 2 Abrasion” value stood at 1. Moreover, the “Mouse 2 Dryness” value stood at 1, the “Mouse 2 Edema” value is listed as 1, the “Mouse 2 Erythema” value turned out to be 2 and the “Mouse 2 Eschar” value is 1. Further, the “Mouse 2 Lichenification” value is given as 1, the “Mouse 2 Sum” value is recorded as 7, the “Mouse 3 Abrasion” value came out at 2 and the “Mouse 3 Dryness” value is given as 2. Further, the “Mouse 3 Edema” value is 1, the “Mouse 3 Erythema” value was found to be 2, the “Mouse 3 Eschar” value was 1 and the “Mouse 3 Lichenification” value was 1. In addition, the “Mouse 3 Sum” value was found to be 9 and the “Mean (of Sum, SCORAD)” value is 6.7.
With `CCCCCCCCCCCCCCCC(=O)N[C@@H](Cc1c[nH]c2ccccc12)C(=O)O` [N-palmitoyl-L-tryptophan], the “Mouse 1 Erythema” value is 1, the “Mouse 1 Abrasion” value is given as 1, the “Mouse 1 Dryness” value is recorded as 1 and the “Mouse 1 Edema” value is 2. The “Mouse 1 Eschar” value turned out to be 1, the “Mouse 1 Lichenification” value turned out to be 2, the “Mouse 1 Sum” value is 6 and the “Mouse 2 Abrasion” value is 2. In addition, the “Mouse 2 Dryness” value came to 2, the “Mouse 2 Edema” value is 1, the “Mouse 2 Erythema” value is on record as 2 and the “Mouse 2 Eschar” value is 2. For the same compound, the “Mouse 2 Lichenification” value came out at 1, the “Mouse 2 Sum” value came out at 10, the “Mouse 3 Abrasion” value came out at 1 and the “Mouse 3 Dryness” value is reported as 2. In addition, the “Mouse 3 Edema” value is reported as 2, the “Mouse 3 Erythema” value is 2, the “Mouse 3 Eschar” value was 1 and the “Mouse 3 Lichenification” value came to 2. For the same compound, the “Mouse 3 Sum” value is 10 and the “Mean (of Sum, SCORAD)” value is listed as 8.7.
